Publication PMC9920732 (2023)

Experiments:
Assay in all cases: FRET quenching titration (qPCR instrument)
Details in all cases: 150 mM KCl, 15 mM NaCl; 20 mM Tris pH 7.4, 37 °C, 1 µM DNA; duplex shifted to quadruplex, complete at 50 µM pyridostatin
[1] = test system: A:U (Tel22-T annealed to U-containing complement) (DNA, duplex, 2'-deoxyuridine at 10 of strand 2) AGGGTTAGGGTTAGGGTTAGGG/CCCTAACCCUAACCCTAACCCT
[2] = test system: A:THF (Tel22-T annealed to complement with abasic site) (DNA, mismatch bulge abasic, tetrahydrofuran (THF) abasic site at 10 of strand 2) AGGGTTAGGGTTAGGGTTAGGG/CCCTAACCCNAACCCTAACCCT
[3] = test system: A:Gap (Tel22-T annealed to two shorter complements, one-base gap) (DNA, duplex, 5'-phosphate on strand 3; one-base gap between strands 2 and 3) AGGGTTAGGGTTAGGGTTAGGG/CCCTAACCC/AACCCTAACCCT

Measured: binding

NCCOc1cc(C(=O)Nc2cc(OCCN)c3ccccc3n2)nc(C(=O)Nc2cc(OCCN)c3ccccc3n2)c1
yes: [1] | [2] | [3]
